Source: US20090274676A1, “COMBINATION OF DEHYDROEPIANDROSTERONE OR DEHYDROEPIANDROSTERONE-SULFATE WITH A PDE-4 INHIBITOR FOR TREATMENT OF ASTHMA OR CHRONIC OBSTRUCTIVE PULMONARY DISEASE” (priority 2003, published 2009)
Values joined by “and” are separate entries in the source; they are usually repeats but may differ in a detail not shown here. Identical values can stand only once.

Key:
Type in all cases: physicochemical
[1] = Solid-state stability with and without lactose at 50° C. (HPLC, DHEA formation)
Text: These conditions were used to stress the formulation in order to predict its long-term stability results. […] The primary degradant is DHEA. […] The materials on accelerated storage become more cohesive with time as evidenced by clumping during sample weighing for chemical analysis. […] This is a considerable disadvantage since lactose is the most commonly used inhalation excipient for dry powder formulations. Continuing with the virtually anhydrous form would mean limiting formulations to neat powder or undertaking more comprehensive safety studies to use a novel excipient.

[2] = Emitted dose studies with dry powder inhalers; settings: for Emitted Dose (%): single runs
Procedure: DHEA-S powder was collected in Nephele tubes and assayed by HPLC. Triplicate experiments were performed at each airflow rate for each of the three dry powder inhalers tested (Rotahaler, Diskhaler and IDL's DPI devices). A Nephele tube was fitted at one end with a glass filter (Gelman Sciences, Type A/E, […]), which in turn was connected to the airflow line to collect the emitted dose of the drug from the respective dry powder inhaler being tested. A silicone adapter, with an opening to receive the mouthpiece of the respective dry powder inhaler being tested at the other end of the Nephele tube was secured. A desired airflow, of 30, 60, or 90 L/min, was achieved through the Nephele tube. Each dry powder inhaler's mouthpiece was inserted then into the silicone rubber adapter, and the airflow was continued for about four s after which the tube was removed and an end-cap screwed onto the end of each tube. The end-cap of the tube not containing the filter was removed and 10 ml of an HPLC grade water-acetonitrile solution (1:1) added to the tube, the end-cap reattached, and the tube shaken for 1-2 minutes. The end-cap then was removed from the tube and the solution was transferred to a 10 ml plastic syringe fitted with a filter (Cameo 13N Syringe Filter, Nylon, 0.22 μm). An aliquot of the solution was directly filtered into an HPLC vial for later drug assay via HPLC. […] When the micronized DHEA-S (only vial B used), was weighed for placement into the gelatin capsule or blister, there appeared to be a few aggregates of the micronized powder. […] Table 2 summarizes the results for the Rotahaler experiments at 3 different flow rates, for the Diskhaler experiments at 3 different flow rates, and of the multi-dose experiments at 3 different flow rates.

[3] = Particle size of jet-milled / spray-dried anhydrous DHEA-S (Malvern Mastersizer X, light microscope); settings: for Mean particle size: spray dried, two batches
Procedure: Approximately 1 g sample was passed through the jet mill, once, and approximately 2 g sample were passed through the jet mill twice. […] The resulting solution was sonicated for 3 minutes and appeared fully dispersed. The dispersed solutions were tested on a Malvern Mastersizer X with a small volume sampler (SVS) attachment. One sample of dispersed material was tested 5 times. The median particle size or D (v, 0.5) of unmilled material was 52.56 μm and the % RSD (relative standard deviation) was 7.61 for the 5 values. The D (v, 0.5) for a single pass through the jet mill was 3.90 μm and the % RSD was 1.27, and the D (v, 0.5) from a double pass through the jet mill 3.25 μm and the % RSD was 3.10.
The solution was spray-dried with a B-191 Mini Spray-Drier (Buchi, Flawil, Switzerland) with an inlet temperature of 55° C., outlet temperature of 40° C., at 100% aspirator, at 10% pump, nitrogen flow at 40 mbar and spray flow at 600 units. The spray-dried product was suspended in hexane and Span85 surfactant added to reduce agglomeration. The dispersions were sonicated with cooling for 3-5 minutes for complete dispersion and the dispersed solutions tested on a Malvern Mastersizer X with a Small Volume Sampler (SVS) attachment. […] Visual examination by light microscope of the dispersions of each batch confirmed that spray drying produced small respirable size particles. The mean particle size was 2.4 μm and 2.0 μm for each batch, respectively.

[4] = Diskhaler (2nd study), 87.8 L/min
[5] = IDL Multi-Dose (2nd study), 87.8 L/min

`C[C@]12CC[C@H](OS(=O)(=O)[O-])CC1=CC[C@@H]1[C@@H]2CC[C@]2(C)C(=O)CC[C@@H]12.[Na+]` [Anhydrous DHEA-S] showed a DHEA % formed ([1]; 50° C., 1 week) of 9.817%, a DHEA % formed ([1]; 50° C., 2 weeks) of 14.954% and a DHEA % formed ([1]; 50° C., 4 weeks) of 20.171%. For the same molecule, the DHEA % formed ([1]; Control, initial (Time=0)) was 2.774%, the DHEA % formed ([1]; Control, sealed, 25° C., 1 week) was 2.694% and the DHEA % formed ([1]; Control, sealed, 25° C., 2 weeks) was 2.370%. For the same molecule, the DHEA % formed ([1]; Control, sealed, 25° C., 4 weeks) was 2.666%, the “Emitted Dose (%), Average” value [2, 4] was 59.1% and the “Emitted Dose (%)” value [2, 4] was 57.9% and 59.9% and 59.5%. For the same molecule, the “Emitted Dose (%), Average” value ([2]; Diskhaler, 30 L/min) was 58.6%, the “Emitted Dose (%)” value ([2]; Diskhaler, 30 L/min) was 53.8% and 53.4% and 68.7% and the “Emitted Dose (%), Average” value ([2]; Diskhaler, 60 L/min) was 68.2%. The “Emitted Dose (%)” value ([2]; Diskhaler, 60 L/min) was 63.4% and 38.9% and 58.0%, the “Emitted Dose (%), Average” value ([2]; Diskhaler, 87.8 L/min) was 51.3% and the “Emitted Dose (%)” value ([2]; Diskhaler, 87.8 L/min) was 65.7% and 41.6% and 46.5%. For the same molecule, the “Emitted Dose (%), Average” value [2, 5] was 84.8%, the “Emitted Dose (%)” value [2, 5] was 85.7% and 84.6% and 84.0% and the “Emitted Dose (%), Average” value ([2]; IDL Multi-Dose, 30 L/min) was 85.4%. For the same molecule, the “Emitted Dose (%)” value ([2]; IDL Multi-Dose, 30 L/min) was 78.9% and 88.2% and 89.2%, the “Emitted Dose (%), Average” value ([2]; IDL Multi-Dose, 60 L/min) was 84.0% and the “Emitted Dose (%)” value ([2]; IDL Multi-Dose, 60 L/min) was 78.8% and 83.7% and 89.6%. The “Emitted Dose (%), Average” value ([2]; IDL Multi-Dose, 87.8 L/min) was 72.6%, the “Emitted Dose (%)” value ([2]; IDL Multi-Dose, 87.8 L/min) was 71.3% and 79.0% and 67.4% and the “Emitted Dose (%), Average” value ([2]; Rotahaler (2nd study), 87.8 L/min) was 31.5%. For the same molecule, the “Emitted Dose (%), Average” value ([2]; Rotahaler, 30 L/min) was 34.7%, the “Emitted Dose (%), Average” value ([2]; Rotahaler, 60 L/min) was 57.3% and the “Emitted Dose (%)” value ([2]; Rotahaler, 60 L/min) was 58.1% and 68.2% and 45.7%. For the same molecule, the “Emitted Dose (%), Average” value ([2]; Rotahaler, 87.8 L/min) was 69.7%, the “Emitted Dose (%)” value ([2]; Rotahaler, 87.8 L/min) was 73.2% and 67.1% and 68.7% and the “Median particle size D (v, 0.5)” value ([3]; double pass through the jet mill) was 3.25 μm. For the same molecule, the “Median particle size D (v, 0.5)” value ([3]; single pass through the jet mill) was 3.90 μm, the Mean particle size ([3]; Malvern Mastersizer X) was 5.07±0.70 μm and 6.66±0.91 μm and the Mean particle size ([3]; visual examination by light microscope) was 2.4 μm and 2.0 μm. The “Median particle size D (v, 0.5)” value ([3]; unmilled material) was 52.56 μm.
